Source: ChEMBL document CHEMBL1149599, “Design, syntheses, and antitumor activity of novel chromone and aurone derivatives” (Bioorg Med Chem, 2007)

Legend:
cells = type: functional, cell-based; settings: Homo sapiens, MDA-MB-435S, 72 h
Description: Antiproliferative activity against human MDA-MB-435S cells after 72 hrs by MTT method

HEp-2 [1] = assay: Antiproliferative activity against human Hep2 cells after 72 hrs by MTT method; type: functional, cell-based; settings: HEp-2, 72 h
[2] = Antiproliferative activity against human HCCLM7 cells after 72 hrs by MTT method; type: functional, cell-based; settings: HCCLM7, 72 h
SW480 = assay: Antiproliferative activity against human SW480 cells after 72 hrs by MTT method; type: functional, cell-based; settings: SW480, 72 h
HEp-2 [3] = assay: Cell cycle arrest in Hep2 cells assessed as accumulation at subG0 phase at 4.7 uM after 24 hrs; type: functional, Homo sapiens
HEp-2 [4] = assay: Cell cycle arrest in Hep2 cells assessed as accumulation at S phase at 4.7 uM after 36 hrs; type: functional, Homo sapiens
HEp-2 [5] = assay: Cell cycle arrest in Hep2 cells assessed as accumulation at G2/M phase at 4.7 uM after 24 hrs; type: functional, Homo sapiens
HEp-2 [6] = assay: Cell cycle arrest in Hep2 cells assessed as accumulation at G2/M phase at 4.7 uM after 48 hrs; type: functional, cell-based, Homo sapiens
HEp-2 [7] = assay: Cell cycle arrest in Hep2 cells assessed as accumulation at G0/G1 phase at 4.7 uM after 36 hrs; type: functional, Homo sapiens
HEp-2 [8] = assay: Cell cycle arrest in Hep2 cells assessed as accumulation at S phase at 4.7 uM after 48 hrs; type: functional, Homo sapiens
HEp-2 [9] = assay: Cell cycle arrest in Hep2 cells assessed as accumulation at S phase at 4.7 uM after 24 hrs; type: functional, Homo sapiens
HEp-2 [10] = assay: Cell cycle arrest in Hep2 cells assessed as accumulation at subG0 phase at 4.7 uM after 48 hrs; type: functional, Homo sapiens
HEp-2 [11] = assay: Cell cycle arrest in Hep2 cells assessed as accumulation at G0/G1 phase at 4.7 uM after 24 hrs; type: functional, Homo sapiens
HEp-2 [12] = assay: Cell cycle arrest in Hep2 cells assessed as accumulation at G2/M phase at 4.7 uM after 36 hrs; type: functional, Homo sapiens
HEp-2 [13] = assay: Cell cycle arrest in Hep2 cells assessed as accumulation at G0/G1 phase at 4.7 uM after 48 hrs; type: functional, Homo sapiens
HEp-2 [14] = assay: Cell cycle arrest in Hep2 cells assessed as accumulation at subG0 phase at 4.7 uM after 36 hrs; type: functional, Homo sapiens
HEp-2 [15] = assay: Cell cycle arrest in Hep2 cells assessed as accumulation at S phase at 5.7 uM after 48 hrs; type: functional, Homo sapiens
HEp-2 [16] = assay: Cell cycle arrest in Hep2 cells assessed as accumulation at subG0 phase at 5.7 uM after 48 hrs; type: functional, Homo sapiens
HEp-2 [17] = assay: Cell cycle arrest in Hep2 cells assessed as accumulation at subG0 phase at 5.7 uM after 36 hrs; type: functional, Homo sapiens
HEp-2 [18] = assay: Cell cycle arrest in Hep2 cells assessed as accumulation at subG0 phase at 5.7 uM after 24 hrs; type: functional, Homo sapiens
HEp-2 [19] = assay: Cell cycle arrest in Hep2 cells assessed as accumulation at G0/G1 phase at 5.7 uM after 24 hrs; type: functional, Homo sapiens
HEp-2 [20] = assay: Cell cycle arrest in Hep2 cells assessed as accumulation at S phase at 5.7 uM after 36 hrs; type: functional, Homo sapiens
HEp-2 [21] = assay: Cell cycle arrest in Hep2 cells assessed as accumulation at G0/G1 phase at 5.7 uM after 48 hrs; type: functional, Homo sapiens
HEp-2 [22] = assay: Cell cycle arrest in Hep2 cells assessed as accumulation at G0/G1 phase at 5.7 uM after 36 hrs; type: functional, Homo sapiens
HEp-2 [23] = assay: Cell cycle arrest in Hep2 cells assessed as accumulation at […] phase at 5.7 uM after 36 hrs; type: functional, Homo sapiens
HEp-2 [24] = assay: Cell cycle arrest in Hep2 cells assessed as accumulation at G2/M phase at 5.7 uM after 24 hrs; type: functional, Homo sapiens
HEp-2 [25] = assay: Cell cycle arrest in Hep2 cells assessed as accumulation at […] phase at 5.7 uM after 48 hrs; type: functional, Homo sapiens
HEp-2 [26] = assay: Cell cycle arrest in Hep2 cells assessed as accumulation at S phase at 5.7 uM after 24 hrs; type: functional, Homo sapiens

SMILES	IC50 (cells)	IC50 (HEp-2 [1])	IC50 [2]	IC50 (SW480)	further results
O=C1/C(=C/N2CCN(c3ccccc3)CC2)Oc2ccccc21	25.1 µM	27.7 µM	45.1 µM	36.4 µM	–
O=c1c(Sc2nc3ccccc3[nH]2)coc2ccccc12	30.3 µM	42.6 µM	> 50 µM	> 50 µM	–
O=c1c(Sc2nc3ccccc3s2)coc2ccccc12	17.1 µM	31.3 µM	> 50 µM	45.2 µM	–
Nc1nnc(Sc2coc3ccccc3c2=O)s1	> 50 µM	47.7 µM	> 50 µM	> 50 µM	–
O=C1/C(=C/N2CCN(CC(c3ccc(F)cc3)c3ccc(F)cc3)CC2)Oc2ccccc21	4.1 µM	4.7 µM	12.1 µM	13.1 µM	Activity (HEp-2 [3]): 0%; Activity (HEp-2 [4]): 18.45%; Activity (HEp-2 [5]): 19.09%; Activity (HEp-2 [6]): 5.41%; Activity (HEp-2 [7]): 63.03%; Activity (HEp-2 [8]): 20.89%; Activity (HEp-2 [9]): 25.01%; Activity (HEp-2 [10]): 16.46%; Activity (HEp-2 [11]): 55.9%; Activity (HEp-2 [12]): 18.52%; Activity (HEp-2 [13]): 73.71%; Activity (HEp-2 [14]): 5.55%
CN1CCN(/C=C2\Oc3ccccc3C2=O)C(c2ccccc2)C1 (stereo not given)	> 50 µM	> 50 µM	> 50 µM	> 50 µM	–
O=C1/C(=C/N2CCCCC2)Oc2ccccc21	47.8 µM	> 50 µM	> 50 µM	> 50 µM	–
Cc1cc(C)nc(Sc2coc3ccccc3c2=O)n1	> 50 µM	> 50 µM	> 50 µM	> 50 µM	–
O=c1c(Sc2nc3ccccc3o2)coc2ccccc12	26.1 µM	29.6 µM	> 50 µM	36.4 µM	–
O=c1[nH]cc(F)c(=O)[nH]1 [FLUOROURACIL]	14.5 µM	129 µM	18.6 µM	8.1 µM	–
O=C1/C(=C/N2CCN(Cc3ccccc3)CC2)Oc2ccccc21	7.6 µM	5.7 µM	9.6 µM	6.6 µM	Activity (HEp-2 [15]): 17.83%; Activity (HEp-2 [16]): 18.2%; Activity (HEp-2 [17]): 4.93%; Activity (HEp-2 [18]): 4.69%; Activity (HEp-2 [19]): 44.87%; Activity (HEp-2 [20]): 23.84%; Activity (HEp-2 [21]): 75.85%; Activity (HEp-2 [22]): 58.7%; Activity (HEp-2 [23]): 17.46%; Activity (HEp-2 [24]): 32.14%; Activity (HEp-2 [25]): 6.32%; Activity (HEp-2 [26]): 22.98%
Cc1nnc(Sc2coc3ccccc3c2=O)s1	> 50 µM	40.2 µM	> 50 µM	> 50 µM	–
CN1CCN(/C=C2\Oc3ccccc3C2=O)CC1	40.3 µM	> 50 µM	> 50 µM	> 50 µM	–
Cc1nnc(Sc2coc3ccccc3c2=O)o1	> 50 µM	> 50 µM	> 50 µM	> 50 µM	–
